37 substances from patent publication US8969516B2, “Method of hydrolysis of peptide bond” (priority 2006, dated 2015) can be followed below.

A short description of the series: MALDI-TOF screening of Ni^2+ dependent hydrolysis in a combinatorial peptide library. It counts as physicochemical. Conditions: CH3CO-Gly-Ala-Ser-X-His-Z-Lys-Phe-Leu-NH2 library, Ni^2+ 2 mM, pH 8.2, 10 mM Tris, score=24/tm. In short, it runs like this:
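Peptide sublibraries CH3CO-Gly-Ala-Ser/Thr-X-His-Z-Lys-Phe-Leu-NH2 (1 mM total) incubated with 2 mM Ni^2+ in 10 mM Tris pH 8.2 at 37 °C and 45 °C. Hydrolysis products, plus loss of substrate signals, detected by MALDI-TOF at 2, 4, 6 and 8 h; residues X and Z scored and ranked.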

For the substance Ac-GASKHAKFL-NH2 [SKHA], the “hydrolysis score from MALDI-TOF screening” value (“hydrolysis score” below) (37° C.) is 0 (a score of 0 if no trace of the product of hydrolysis was seen after 8 hours of incubation) and the “hydrolysis score” value (45° C.) is 0 (a score of 0 if no trace of the product of hydrolysis was seen after 8 hours of incubation).

On to Ac-GASKHDKFL-NH2 [SKHD], for which the “hydrolysis score” value reads like this: (37° C.) 0 (a score of 0 if no trace of the product of hydrolysis was seen after 8 hours of incubation); (45° C.) 0 (a score of 0 if no trace of the product of hydrolysis was seen after 8 hours of incubation).

As to Ac-GASKHEKFL-NH2 [SKHE], the “hydrolysis score” value reads like this: (37° C.) 0 (a score of 0 if no trace of the product of hydrolysis was seen after 8 hours of incubation); (45° C.) 3 (a score of 3 for detection at 8 hours).

Turning to Ac-GASKHFKFL-NH2 [SKHF], the “hydrolysis score” value (37° C.) was 4 (a score of 4 for detection at 6 hours) and the “hydrolysis score” value (45° C.) was 4 (a score of 4 for detection at 6 hours).

Regarding Ac-GASKHGKFL-NH2 [SKHG], the “hydrolysis score” value is given as 0 (a score of 0 if no trace of the product of hydrolysis was seen after 8 hours of incubation) (37° C.) and 0 (a score of 0 if no trace of the product of hydrolysis was seen after 8 hours of incubation) (45° C.).

Consider Ac-GASKHHKFL-NH2 [SKHH], for which the “hydrolysis score” value (37° C.) is 4 (a score of 4 for detection at 6 hours) and the “hydrolysis score” value (45° C.) is on record as 3 (a score of 3 for detection at 8 hours).

With Ac-GASKHIKFL-NH2 [SKHI], the “hydrolysis score” value (37° C.) is 6 (a score of 6 for detection at 4 hours) and the “hydrolysis score” value (45° C.) is 12 (a score of 12, if it was seen to be partially hydrolysed at 2 hours).

As to Ac-GASKHKKFL-NH2 [SKHK], the “hydrolysis score” value is, setting by setting: (37° C.) 6 (a score of 6 for detection at 4 hours); (45° C.) 12 (a score of 12, if it was seen to be partially hydrolysed at 2 hours).

With Ac-GASKHMKFL-NH2 [SKHM], the “hydrolysis score” value reads like this: (37° C.) 3 (a score of 3 for detection at 8 hours); (45° C.) 4 (a score of 4 for detection at 6 hours).

On to Ac-GASKHNKFL-NH2 [SKHN], for which the “hydrolysis score” value by setting is: (37° C.) 0 (a score of 0 if no trace of the product of hydrolysis was seen after 8 hours of incubation); (45° C.) 0 (a score of 0 if no trace of the product of hydrolysis was seen after 8 hours of incubation).

Ac-GASKHPKFL-NH2 [SKHP]: the “hydrolysis score” value by setting is: (37° C.) 0 (a score of 0 if no trace of the product of hydrolysis was seen after 8 hours of incubation); (45° C.) 0 (a score of 0 if no trace of the product of hydrolysis was seen after 8 hours of incubation).

In the case of Ac-GASKHQKFL-NH2 [SKHQ], the “hydrolysis score” value reads like this: (37° C.) 0 (a score of 0 if no trace of the product of hydrolysis was seen after 8 hours of incubation); (45° C.) 0 (a score of 0 if no trace of the product of hydrolysis was seen after 8 hours of incubation).

On to Ac-GASKHTKFL-NH2 [SKHT], for which the “hydrolysis score” value (37° C.) is listed as 0 (a score of 0 if no trace of the product of hydrolysis was seen after 8 hours of incubation) and the “hydrolysis score” value (45° C.) is on record as 0 (a score of 0 if no trace of the product of hydrolysis was seen after 8 hours of incubation).

In the case of Ac-GASKHVKFL-NH2 [SKHV], the “hydrolysis score” value is, setting by setting: (37° C.) 4 (a score of 4 for detection at 6 hours); (45° C.) 6 (a score of 6 for detection at 4 hours).

Ac-GASKHWKFL-NH2 [SKHW]: the “hydrolysis score” value (37° C.) was 12 (a score of 12, if it was seen to be partially hydrolysed at 2 hours) and the “hydrolysis score” value (45° C.) is listed as 12 (a score of 12, if it was seen to be partially hydrolysed at 2 hours).

Take Ac-GASKHYKFL-NH2 [SKHY]: the “hydrolysis score” value (37° C.) was 4 (a score of 4 for detection at 6 hours) and the “hydrolysis score” value (45° C.) is recorded as 4 (a score of 4 for detection at 6 hours).

Consider Ac-GASLHAKFL-NH2 [SLHA], for which the “hydrolysis score” value reads like this: (37° C.) 0 (a score of 0 if no trace of the product of hydrolysis was seen after 8 hours of incubation); (45° C.) 0 (a score of 0 if no trace of the product of hydrolysis was seen after 8 hours of incubation).

As for Ac-GASLHDKFL-NH2 [SLHD], the “hydrolysis score” value is, setting by setting: (37° C.) 0 (a score of 0 if no trace of the product of hydrolysis was seen after 8 hours of incubation); (45° C.) 0 (a score of 0 if no trace of the product of hydrolysis was seen after 8 hours of incubation).

Turning to Ac-GASLHEKFL-NH2 [SLHE], the “hydrolysis score” value is on record as 0 (a score of 0 if no trace of the product of hydrolysis was seen after 8 hours of incubation) (37° C.) and 0 (a score of 0 if no trace of the product of hydrolysis was seen after 8 hours of incubation) (45° C.).

Turning to Ac-GASLHFKFL-NH2 [SLHF], the “hydrolysis score” value (37° C.) is 0 (a score of 0 if no trace of the product of hydrolysis was seen after 8 hours of incubation) and the “hydrolysis score” value (45° C.) is given as 3 (a score of 3 for detection at 8 hours).

Ac-GASLHGKFL-NH2 [SLHG]: the “hydrolysis score” value is, setting by setting: (37° C.) 0 (a score of 0 if no trace of the product of hydrolysis was seen after 8 hours of incubation); (45° C.) 0 (a score of 0 if no trace of the product of hydrolysis was seen after 8 hours of incubation).

With Ac-GASLHHKFL-NH2 [SLHH], the “hydrolysis score” value is, setting by setting: (37° C.) 0 (a score of 0 if no trace of the product of hydrolysis was seen after 8 hours of incubation); (45° C.) 0 (a score of 0 if no trace of the product of hydrolysis was seen after 8 hours of incubation).

Consider Ac-GASLHIKFL-NH2 [SLHI], for which the “hydrolysis score” value runs as follows: (37° C.) 3 (a score of 3 for detection at 8 hours); (45° C.) 0 (a score of 0 if no trace of the product of hydrolysis was seen after 8 hours of incubation).

On to Ac-GASLHKKFL-NH2 [SLHK], for which the “hydrolysis score” value was 3 (a score of 3 for detection at 8 hours) (37° C.) and 4 (a score of 4 for detection at 6 hours) (45° C.).

On to Ac-GASLHLKFL-NH2 [SLHL], for which the “hydrolysis score” value is given as 3 (a score of 3 for detection at 8 hours) (37° C.) and 0 (a score of 0 if no trace of the product of hydrolysis was seen after 8 hours of incubation) (45° C.).

For the substance Ac-GASLHMKFL-NH2 [SLHM], the “hydrolysis score” value was 0 (a score of 0 if no trace of the product of hydrolysis was seen after 8 hours of incubation) (37° C.) and 0 (a score of 0 if no trace of the product of hydrolysis was seen after 8 hours of incubation) (45° C.).

Regarding Ac-GASLHNKFL-NH2 [SLHN], the “hydrolysis score” value (37° C.) is listed as 0 (a score of 0 if no trace of the product of hydrolysis was seen after 8 hours of incubation) and the “hydrolysis score” value (45° C.) is on record as 0 (a score of 0 if no trace of the product of hydrolysis was seen after 8 hours of incubation).

As to Ac-GASLHPKFL-NH2 [SLHP], the “hydrolysis score” value runs as follows: (37° C.) 0 (a score of 0 if no trace of the product of hydrolysis was seen after 8 hours of incubation); (45° C.) 0 (a score of 0 if no trace of the product of hydrolysis was seen after 8 hours of incubation).

In the case of Ac-GASLHQKFL-NH2 [SLHQ], the “hydrolysis score” value is, setting by setting: (37° C.) 0 (a score of 0 if no trace of the product of hydrolysis was seen after 8 hours of incubation); (45° C.) 0 (a score of 0 if no trace of the product of hydrolysis was seen after 8 hours of incubation).

As for Ac-GASLHRKFL-NH2 [SLHR], the “hydrolysis score” value runs as follows: (37° C.) 3 (a score of 3 for detection at 8 hours); (45° C.) 4 (a score of 4 for detection at 6 hours).

For Ac-GASLHSKFL-NH2 [SLHS], the “hydrolysis score” value reads like this: (37° C.) 0 (a score of 0 if no trace of the product of hydrolysis was seen after 8 hours of incubation); (45° C.) 0 (a score of 0 if no trace of the product of hydrolysis was seen after 8 hours of incubation).

Consider Ac-GASLHTKFL-NH2 [SLHT], for which the “hydrolysis score” value by setting is: (37° C.) 0 (a score of 0 if no trace of the product of hydrolysis was seen after 8 hours of incubation); (45° C.) 0 (a score of 0 if no trace of the product of hydrolysis was seen after 8 hours of incubation).

Consider Ac-GASLHVKFL-NH2 [SLHV], for which the “hydrolysis score” value by setting is: (37° C.) 0 (a score of 0 if no trace of the product of hydrolysis was seen after 8 hours of incubation); (45° C.) 3 (a score of 3 for detection at 8 hours).

Regarding Ac-GASLHWKFL-NH2 [SLHW], the “hydrolysis score” value reads like this: (37° C.) 3 (a score of 3 for detection at 8 hours); (45° C.) 4 (a score of 4 for detection at 6 hours).

On to Ac-GASLHYKFL-NH2 [SLHY], for which the “hydrolysis score” value is listed as 0 (a score of 0 if no trace of the product of hydrolysis was seen after 8 hours of incubation) (37° C.) and 3 (a score of 3 for detection at 8 hours) (45° C.).

On to Ac-GASMHAKFL-NH2 [SMHA], for which the “hydrolysis score” value is, setting by setting: (37° C.) 0 (a score of 0 if no trace of the product of hydrolysis was seen after 8 hours of incubation); (45° C.) 3 (a score of 3 for detection at 8 hours).

Turning to Ac-GASMHDKFL-NH2 [SMHD], the “hydrolysis score” value is reported as 0 (a score of 0 if no trace of the product of hydrolysis was seen after 8 hours of incubation) (37° C.) and 0 (a score of 0 if no trace of the product of hydrolysis was seen after 8 hours of incubation) (45° C.).
